According to ChEMBL document CHEMBL3727342, “Compounds and methods for kinase modulation, and indications therefor” (2012):

How the values were obtained:
[1] = target: Vascular endothelial growth factor receptor 2 (Homo sapiens, UniProt P35968); test: Inhibition of KDR (unknown origin) by FRET assay
[2] = target: Serine/threonine-protein kinase B-raf (Homo sapiens, UniProt P15056, V600E); test: Inhibition of B-raf V600E mutant (unknown origin) expressed in Sf9 cells using biotin-MEK1substrate incubated for 1 hr
Sequence of Serine/threonine-protein kinase B-raf (Homo sapiens, UniProt P15056, V600E) (P15056 2-766 V600E limits assumed): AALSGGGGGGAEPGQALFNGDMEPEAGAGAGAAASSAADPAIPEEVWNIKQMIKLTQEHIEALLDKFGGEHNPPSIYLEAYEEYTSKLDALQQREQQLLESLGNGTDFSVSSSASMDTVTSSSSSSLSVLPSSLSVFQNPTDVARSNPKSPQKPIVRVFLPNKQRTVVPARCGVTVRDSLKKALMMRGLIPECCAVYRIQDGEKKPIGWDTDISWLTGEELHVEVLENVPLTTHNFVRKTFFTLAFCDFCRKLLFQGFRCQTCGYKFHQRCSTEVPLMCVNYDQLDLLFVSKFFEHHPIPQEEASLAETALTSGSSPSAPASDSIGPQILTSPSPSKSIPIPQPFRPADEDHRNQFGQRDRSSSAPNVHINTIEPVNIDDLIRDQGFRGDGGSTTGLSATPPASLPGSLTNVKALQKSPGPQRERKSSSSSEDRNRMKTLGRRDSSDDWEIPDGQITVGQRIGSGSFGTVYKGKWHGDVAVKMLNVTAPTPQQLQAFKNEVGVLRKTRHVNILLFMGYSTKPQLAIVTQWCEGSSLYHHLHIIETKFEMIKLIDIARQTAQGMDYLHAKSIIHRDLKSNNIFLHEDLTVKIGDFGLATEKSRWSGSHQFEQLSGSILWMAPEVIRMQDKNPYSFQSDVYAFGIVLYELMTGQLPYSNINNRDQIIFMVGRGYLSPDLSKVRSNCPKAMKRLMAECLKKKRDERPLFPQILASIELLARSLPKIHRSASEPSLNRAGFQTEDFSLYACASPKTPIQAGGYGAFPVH

[3] = target: RAF proto-oncogene serine/threonine-protein kinase (Homo sapiens, UniProt P04049); test: Inhibition of human C-raf using biotin-MEK1 substrate incubated for 1 hr
[4] = target: Mast/stem cell growth factor receptor Kit (Homo sapiens, UniProt P10721); test: Inhibition of Kit (unknown origin) expressed in Escherichia coli
Sequence of Mast/stem cell growth factor receptor Kit (P10721 whole entry): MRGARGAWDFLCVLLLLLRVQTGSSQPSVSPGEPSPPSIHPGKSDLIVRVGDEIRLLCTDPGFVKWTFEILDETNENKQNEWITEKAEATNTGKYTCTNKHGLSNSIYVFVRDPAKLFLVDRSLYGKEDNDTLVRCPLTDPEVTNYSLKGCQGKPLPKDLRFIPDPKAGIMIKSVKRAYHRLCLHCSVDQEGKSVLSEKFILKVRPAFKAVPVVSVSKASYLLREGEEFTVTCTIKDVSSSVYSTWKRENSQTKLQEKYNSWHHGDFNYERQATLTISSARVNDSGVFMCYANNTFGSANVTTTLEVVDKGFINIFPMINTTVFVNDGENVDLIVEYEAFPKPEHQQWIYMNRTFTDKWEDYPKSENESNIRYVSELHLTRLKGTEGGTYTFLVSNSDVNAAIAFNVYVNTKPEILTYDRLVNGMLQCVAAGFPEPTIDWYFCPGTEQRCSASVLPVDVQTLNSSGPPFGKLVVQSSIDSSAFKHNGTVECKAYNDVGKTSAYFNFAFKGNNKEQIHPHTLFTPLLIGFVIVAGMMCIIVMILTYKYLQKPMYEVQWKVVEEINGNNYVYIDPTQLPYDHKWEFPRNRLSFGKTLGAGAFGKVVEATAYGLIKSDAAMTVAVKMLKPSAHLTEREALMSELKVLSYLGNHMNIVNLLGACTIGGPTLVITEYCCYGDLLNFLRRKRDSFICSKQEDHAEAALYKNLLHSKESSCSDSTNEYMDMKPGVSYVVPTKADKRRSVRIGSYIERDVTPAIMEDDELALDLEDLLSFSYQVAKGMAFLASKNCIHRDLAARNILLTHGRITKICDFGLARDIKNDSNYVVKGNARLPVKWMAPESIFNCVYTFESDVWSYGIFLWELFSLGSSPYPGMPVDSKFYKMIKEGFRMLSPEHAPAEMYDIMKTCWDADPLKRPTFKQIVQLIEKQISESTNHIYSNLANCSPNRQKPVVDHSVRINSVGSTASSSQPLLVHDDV

[5] = target: Serine/threonine-protein kinase B-raf (Homo sapiens, UniProt P15056); test: Inhibition of N-terminal GST-tagged human recombinant B-Raf (416 to end residues) using biotin-MEK1 substrate incubated for 1 hr
Sequence of Serine/threonine-protein kinase B-raf (Homo sapiens, UniProt P15056) (P15056 whole entry): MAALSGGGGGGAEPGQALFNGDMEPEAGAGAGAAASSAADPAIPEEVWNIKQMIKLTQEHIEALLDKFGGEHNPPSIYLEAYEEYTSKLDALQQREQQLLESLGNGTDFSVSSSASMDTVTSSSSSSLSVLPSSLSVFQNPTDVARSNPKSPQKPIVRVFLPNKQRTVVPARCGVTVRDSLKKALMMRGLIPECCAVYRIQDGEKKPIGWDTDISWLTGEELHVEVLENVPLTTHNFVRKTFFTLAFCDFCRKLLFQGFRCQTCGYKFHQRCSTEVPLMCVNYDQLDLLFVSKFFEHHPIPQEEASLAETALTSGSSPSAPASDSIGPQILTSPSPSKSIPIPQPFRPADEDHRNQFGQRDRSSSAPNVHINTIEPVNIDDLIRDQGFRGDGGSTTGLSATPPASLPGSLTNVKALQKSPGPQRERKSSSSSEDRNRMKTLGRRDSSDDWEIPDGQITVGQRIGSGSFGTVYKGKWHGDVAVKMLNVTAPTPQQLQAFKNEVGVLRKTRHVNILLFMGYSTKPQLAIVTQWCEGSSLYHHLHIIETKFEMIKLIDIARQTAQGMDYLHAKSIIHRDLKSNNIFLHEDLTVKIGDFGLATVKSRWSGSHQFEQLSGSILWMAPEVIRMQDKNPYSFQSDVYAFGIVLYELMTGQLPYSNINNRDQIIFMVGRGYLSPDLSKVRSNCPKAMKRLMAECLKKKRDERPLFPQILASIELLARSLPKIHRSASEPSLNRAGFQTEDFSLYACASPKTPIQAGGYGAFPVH

[6] = target: Macrophage colony-stimulating factor 1 receptor (Homo sapiens, UniProt P07333); test: Inhibition of Fms (unknown origin)
Sequence of Macrophage colony-stimulating factor 1 receptor (P07333 whole entry): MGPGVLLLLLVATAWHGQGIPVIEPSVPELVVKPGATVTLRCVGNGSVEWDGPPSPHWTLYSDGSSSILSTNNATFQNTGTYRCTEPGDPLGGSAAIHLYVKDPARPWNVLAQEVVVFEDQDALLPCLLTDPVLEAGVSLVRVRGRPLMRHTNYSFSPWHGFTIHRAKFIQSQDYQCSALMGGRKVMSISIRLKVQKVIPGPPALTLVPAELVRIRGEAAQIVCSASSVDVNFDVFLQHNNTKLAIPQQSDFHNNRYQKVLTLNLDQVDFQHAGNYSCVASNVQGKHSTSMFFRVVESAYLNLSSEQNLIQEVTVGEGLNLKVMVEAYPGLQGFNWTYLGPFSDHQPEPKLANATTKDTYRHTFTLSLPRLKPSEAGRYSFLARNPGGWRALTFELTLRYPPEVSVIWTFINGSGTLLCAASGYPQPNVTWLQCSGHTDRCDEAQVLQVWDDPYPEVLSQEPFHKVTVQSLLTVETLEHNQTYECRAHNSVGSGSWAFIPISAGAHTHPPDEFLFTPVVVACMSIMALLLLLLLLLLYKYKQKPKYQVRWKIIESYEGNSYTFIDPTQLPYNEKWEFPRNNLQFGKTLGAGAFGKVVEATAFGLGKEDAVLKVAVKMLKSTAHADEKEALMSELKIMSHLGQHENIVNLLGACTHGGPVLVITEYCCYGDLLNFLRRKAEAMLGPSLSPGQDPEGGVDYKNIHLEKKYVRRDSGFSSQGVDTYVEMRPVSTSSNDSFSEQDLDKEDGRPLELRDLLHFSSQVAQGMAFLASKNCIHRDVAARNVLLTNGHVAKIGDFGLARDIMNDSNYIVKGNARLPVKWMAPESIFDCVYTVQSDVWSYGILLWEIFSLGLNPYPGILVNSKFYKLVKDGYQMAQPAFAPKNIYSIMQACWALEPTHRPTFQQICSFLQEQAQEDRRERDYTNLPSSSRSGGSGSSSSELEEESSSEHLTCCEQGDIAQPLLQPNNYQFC

[7] = target: Proto-oncogene tyrosine-protein kinase Src (Homo sapiens, UniProt P12931); test: Inhibition of Src (unknown origin) expressed in Escherichia coli using biotin-(E4Y)3 substrate
[8] = target: T1, Serine/threonine-protein kinase A-Raf (Homo sapiens, UniProt P10398); test: Inhibition of A-Raf (unknown origin)
T1 sequence (P10398 whole entry): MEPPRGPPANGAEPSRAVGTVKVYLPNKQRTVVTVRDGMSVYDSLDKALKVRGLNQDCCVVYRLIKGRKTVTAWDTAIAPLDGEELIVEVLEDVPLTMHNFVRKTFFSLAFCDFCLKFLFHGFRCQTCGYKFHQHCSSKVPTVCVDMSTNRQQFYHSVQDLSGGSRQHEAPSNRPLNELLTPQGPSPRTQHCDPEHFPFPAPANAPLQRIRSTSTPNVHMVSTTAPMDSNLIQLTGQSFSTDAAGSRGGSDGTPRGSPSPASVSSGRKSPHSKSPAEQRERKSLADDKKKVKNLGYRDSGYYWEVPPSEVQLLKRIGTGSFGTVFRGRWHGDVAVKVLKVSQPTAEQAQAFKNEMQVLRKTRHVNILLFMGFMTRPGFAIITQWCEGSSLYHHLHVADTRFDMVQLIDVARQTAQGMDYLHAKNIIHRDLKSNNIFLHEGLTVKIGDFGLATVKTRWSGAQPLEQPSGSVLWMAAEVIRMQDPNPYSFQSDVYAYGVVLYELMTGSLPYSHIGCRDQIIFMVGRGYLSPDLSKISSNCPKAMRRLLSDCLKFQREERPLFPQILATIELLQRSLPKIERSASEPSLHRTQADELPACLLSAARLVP

[9] = target: High affinity nerve growth factor receptor (Homo sapiens, UniProt P04629); test: Inhibition of TrkA (unknown origin)
[10] = target: T2, Tyrosine-protein kinase Tec (Homo sapiens, UniProt P42680); test: Inhibition of TEC (unknown origin)
T2 sequence (P42680 whole entry): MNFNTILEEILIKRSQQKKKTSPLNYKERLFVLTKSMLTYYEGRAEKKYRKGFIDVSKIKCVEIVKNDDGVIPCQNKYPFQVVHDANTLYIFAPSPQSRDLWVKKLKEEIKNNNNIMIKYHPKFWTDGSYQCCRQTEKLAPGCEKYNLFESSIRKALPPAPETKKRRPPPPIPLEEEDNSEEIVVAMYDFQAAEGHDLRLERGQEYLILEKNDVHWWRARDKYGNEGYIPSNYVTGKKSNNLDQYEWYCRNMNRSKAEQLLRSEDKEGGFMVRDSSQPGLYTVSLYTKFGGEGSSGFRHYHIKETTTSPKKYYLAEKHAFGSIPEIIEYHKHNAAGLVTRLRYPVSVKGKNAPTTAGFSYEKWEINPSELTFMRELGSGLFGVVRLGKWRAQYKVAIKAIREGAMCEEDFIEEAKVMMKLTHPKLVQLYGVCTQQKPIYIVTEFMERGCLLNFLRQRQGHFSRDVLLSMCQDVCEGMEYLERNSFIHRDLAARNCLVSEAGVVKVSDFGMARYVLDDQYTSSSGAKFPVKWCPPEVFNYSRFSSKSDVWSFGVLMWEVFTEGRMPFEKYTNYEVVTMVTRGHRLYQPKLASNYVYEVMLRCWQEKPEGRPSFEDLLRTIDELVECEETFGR

Measured: IC50

Sequence of Vascular endothelial growth factor receptor 2 (P35968 whole entry): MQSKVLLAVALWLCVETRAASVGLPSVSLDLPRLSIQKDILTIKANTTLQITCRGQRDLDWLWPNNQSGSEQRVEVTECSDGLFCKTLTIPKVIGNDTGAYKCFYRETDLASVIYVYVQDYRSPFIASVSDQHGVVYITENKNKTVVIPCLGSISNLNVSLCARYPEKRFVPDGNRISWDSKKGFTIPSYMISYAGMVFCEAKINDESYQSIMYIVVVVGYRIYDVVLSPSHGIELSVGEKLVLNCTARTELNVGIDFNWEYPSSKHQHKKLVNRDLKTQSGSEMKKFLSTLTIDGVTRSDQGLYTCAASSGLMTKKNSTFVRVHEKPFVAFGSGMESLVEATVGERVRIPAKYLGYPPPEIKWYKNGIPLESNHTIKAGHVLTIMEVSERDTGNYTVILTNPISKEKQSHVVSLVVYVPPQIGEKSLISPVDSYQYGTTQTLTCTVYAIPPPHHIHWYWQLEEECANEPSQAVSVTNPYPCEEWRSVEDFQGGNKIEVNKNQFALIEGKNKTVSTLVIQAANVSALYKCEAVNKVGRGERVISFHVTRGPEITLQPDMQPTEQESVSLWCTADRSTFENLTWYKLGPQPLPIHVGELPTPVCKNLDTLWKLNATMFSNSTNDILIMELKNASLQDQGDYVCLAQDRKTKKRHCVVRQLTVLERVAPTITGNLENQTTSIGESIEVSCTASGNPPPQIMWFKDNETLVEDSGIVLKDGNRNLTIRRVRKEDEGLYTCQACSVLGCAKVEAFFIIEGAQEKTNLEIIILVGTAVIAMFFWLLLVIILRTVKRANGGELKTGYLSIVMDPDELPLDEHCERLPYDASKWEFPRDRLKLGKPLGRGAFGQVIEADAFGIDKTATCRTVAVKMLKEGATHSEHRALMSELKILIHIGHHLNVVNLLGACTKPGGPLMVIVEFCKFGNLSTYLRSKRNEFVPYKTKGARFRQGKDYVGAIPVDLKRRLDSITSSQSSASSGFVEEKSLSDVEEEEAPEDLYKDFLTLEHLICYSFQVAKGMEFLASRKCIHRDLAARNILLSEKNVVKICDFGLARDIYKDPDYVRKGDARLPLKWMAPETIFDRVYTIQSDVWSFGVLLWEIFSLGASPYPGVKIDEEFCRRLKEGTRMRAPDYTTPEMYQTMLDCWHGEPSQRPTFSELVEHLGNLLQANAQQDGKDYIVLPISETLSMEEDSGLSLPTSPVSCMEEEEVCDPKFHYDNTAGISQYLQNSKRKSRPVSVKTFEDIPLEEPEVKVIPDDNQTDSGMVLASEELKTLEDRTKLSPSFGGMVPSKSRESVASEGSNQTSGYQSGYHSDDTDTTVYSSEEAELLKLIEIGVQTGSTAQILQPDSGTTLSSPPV

O=C(c1c(F)ccc(NS(=O)(=O)c2c(F)cccc2F)c1F)c1c[nH]c2ncncc12
≤ 10 µM: [1] | [2] | [3]

CCC(C)S(=O)(=O)Nc1cccc(C(=O)c2c[nH]c3ncncc23)c1F (configuration not stated)
≤ 10 µM: [4] | [1] | [2]

CCC(C)S(=O)(=O)Nc1ccc(F)c(C(=O)c2c[nH]c3ncncc23)c1F (configuration not stated)
≤ 10 µM: [2] | [3]

O=C(c1c(F)ccc(NS(=O)(=O)c2ccccc2F)c1F)c1c[nH]c2ncncc12
≤ 10 µM: [5] | [1] | [3]

O=S(=O)(Nc1ccc(F)c(C(O)c2c[nH]c3ncnc(C4CC4)c23)c1F)c1ccc(C(F)(F)F)cc1 (configuration not stated)
≤ 10 µM: [6]

CCCS(=O)(=O)Nc1ccc(F)c(C(=O)c2c[nH]c3ncnc(C)c23)c1F
≤ 10 µM: [4] | [1] | [6] | [7] | [2] | [3]

O=C(c1cccc(NS(=O)(=O)C2CCCCC2)c1F)c1c[nH]c2ncncc12
≤ 10 µM: [4] | [2] | [3]

O=C(c1c(F)ccc(NS(=O)(=O)c2ccc(F)cc2)c1F)c1c[nH]c2ncncc12
≤ 10 µM: [2] | [3]

CC(C)(C)c1ccc(S(=O)(=O)Nc2ccc(F)c(C(=O)c3c[nH]c4ncncc34)c2F)cc1
≤ 10 µM: [1] | [2] | [3]

CC(C)CS(=O)(=O)Nc1ccc(F)c(C(=O)c2c[nH]c3ncncc23)c1F
≤ 10 µM: [4] | [2] | [3]

CCCC(C)S(=O)(=O)Nc1cccc(C(=O)c2c[nH]c3ncncc23)c1F (configuration not stated)
≤ 10 µM: [4] | [1]

CCCS(=O)(=O)Nc1cccc(C(=O)c2c[nH]c3ncncc23)c1F
≤ 10 µM: [8] | [2] | [3]

O=C(c1c(F)ccc(NS(=O)(=O)c2cccc(F)c2)c1F)c1c[nH]c2ncncc12
≤ 10 µM: [5] | [3]

O=C(c1cccc(NS(=O)(=O)CC(F)(F)F)c1F)c1c[nH]c2ncncc12
≤ 10 µM: [9] | [2] | [3]

O=C(c1c(F)ccc(NS(=O)(=O)C2CCCCC2)c1F)c1c[nH]c2ncncc12
≤ 10 µM: [4] | [1] | [6] | [2] | [3]

COc1ncnc2[nH]cc(C(=O)c3cccc(NS(=O)(=O)c4ccc(C(F)(F)F)cc4)c3F)c12
≤ 10 µM: [5] | [1] | [3]

CC(C)S(=O)(=O)Nc1ccc(F)c(C(=O)c2c[nH]c3ncncc23)c1F
≤ 10 µM: [1] | [2]

O=C(c1cccc(NS(=O)(=O)C2CCC2)c1F)c1c[nH]c2ncncc12
≤ 10 µM: [4] | [1] | [2]

O=C(c1cccc(NS(=O)(=O)N2CCCC2)c1F)c1c[nH]c2ncncc12
≤ 10 µM: [2] | [3]

O=C(c1c(F)ccc(NS(=O)(=O)c2ccc(OC(F)F)cc2)c1F)c1c[nH]c2ncncc12
≤ 10 µM: [8] | [2] | [3]

O=C(c1cccc(NS(=O)(=O)c2cc(F)ccc2F)c1F)c1c[nH]c2ncncc12
≤ 10 µM: [4] | [5] | [1] | [7] | [3]

CCS(=O)(=O)Nc1ccc(F)c(C(=O)c2c[nH]c3ncncc23)c1F
≤ 10 µM: [2] | [3]

O=C(c1cccc(NS(=O)(=O)c2cccnc2)c1F)c1c[nH]c2ncncc12
≤ 10 µM: [2] | [3]

O=C(c1cccc(NS(=O)(=O)c2ccccc2F)c1F)c1c[nH]c2ncncc12
≤ 10 µM: [5] | [1] | [7] | [3]

COc1ncnc2[nH]cc(C(=O)c3c(F)ccc(NS(=O)(=O)c4ccc(C(F)(F)F)cc4)c3F)c12
≤ 10 µM: [5] | [7] | [3]

CCCS(=O)(=O)Nc1ccc(F)c(C(=O)c2c[nH]c3ncncc23)c1F
≤ 10 µM: [8] | [5] | [10] | [3]

O=C(c1c(F)ccc(NS(=O)(=O)N2CCOCC2)c1F)c1c[nH]c2ncncc12
≤ 10 µM: [4] | [6] | [2] | [3]

O=C(c1c(F)ccc(NS(=O)(=O)c2ccc(F)cc2F)c1F)c1c[nH]c2ncncc12
≤ 10 µM: [1] | [6] | [2] | [3]

O=C(c1cccc(NS(=O)(=O)N2CCOCC2)c1F)c1c[nH]c2ncncc12
≤ 10 µM: [4] | [9] | [2] | [3]

CN(C)S(=O)(=O)Nc1ccc(F)c(C(=O)c2c[nH]c3ncncc23)c1F
≤ 10 µM: [1] | [2] | [3]

CCCc1ccc(S(=O)(=O)Nc2ccc(F)c(C(=O)c3c[nH]c4ncncc34)c2F)cc1
≤ 10 µM: [8] | [5] | [3]

O=C(c1cccc(NS(=O)(=O)c2ccc(C(F)(F)F)cc2)c1F)c1c[nH]c2ncncc12
≤ 10 µM: [8] | [5] | [3]

CC(C)c1ccc(S(=O)(=O)Nc2ccc(F)c(C(=O)c3c[nH]c4ncncc34)c2F)cc1
≤ 10 µM: [8] | [1] | [2] | [3]

O=C(c1cccc(NS(=O)(=O)c2cccc(F)c2)c1F)c1c[nH]c2ncncc12
≤ 10 µM: [5] | [3]

CC(C)CS(=O)(=O)Nc1cccc(C(=O)c2c[nH]c3ncncc23)c1F
≤ 10 µM: [2] | [3]

O=C(c1c(F)ccc(NS(=O)(=O)CCC(F)(F)F)c1F)c1c[nH]c2ncncc12
≤ 10 µM: [4] | [2] | [3]

O=C(c1c(F)ccc(NS(=O)(=O)CC(F)(F)F)c1F)c1c[nH]c2ncncc12
≤ 10 µM: [2] | [3]

O=C(c1c(F)ccc(NS(=O)(=O)c2ccccn2)c1F)c1c[nH]c2ncncc12
≤ 10 µM: [2] | [3]

O=C(c1c(F)ccc(NS(=O)(=O)c2cccc(OC(F)F)c2)c1F)c1c[nH]c2ncncc12
≤ 10 µM: [8] | [2] | [3]

O=C(c1c(F)ccc(NS(=O)(=O)c2cc(F)ccc2F)c1F)c1c[nH]c2ncncc12
≤ 10 µM: [4] | [5] | [1] | [3]

O=C(c1c(F)ccc(NS(=O)(=O)C2CCC2)c1F)c1c[nH]c2ncncc12
≤ 10 µM: [1] | [2] | [3]

O=C(c1cccc(NS(=O)(=O)c2ccc(F)cc2F)c1F)c1c[nH]c2ncncc12
≤ 10 µM: [1] | [2] | [3]

CCCS(=O)(=O)Nc1cccc(C(=O)c2c[nH]c3ncnc(OC)c23)c1F
≤ 10 µM: [4] | [5] | [1] | [7] | [3]

O=C(c1cccc(NS(=O)(=O)c2ccc(F)cc2)c1F)c1c[nH]c2ncncc12
≤ 10 µM: [2]

O=C(c1cccc(NS(=O)(=O)C2CCCC2)c1F)c1c[nH]c2ncncc12
≤ 10 µM: [1] | [2] | [3]

O=C(c1c(F)ccc(NS(=O)(=O)c2ccc(C(F)(F)F)cc2)c1F)c1c[nH]c2ncncc12
≤ 10 µM: [1] | [7] | [2] | [10] | [3]

CN(C)S(=O)(=O)Nc1cccc(C(=O)c2c[nH]c3ncncc23)c1F
≤ 10 µM: [4] | [2]
